The source of these data is patent US12441736B2, “KIF18A inhibitors” (AMGEN INC., priority 2018, dated 2025).

For the assay, the target named is T1, Recombinant human KIF18A (1-467 His-tagged) protein (Homo sapiens, UniProt Q8NI77).
T1 construct: Recombinant human KIF18A (1-467 His-tagged) protein; His; made in house
Nature of the assay: KIF18A Enzyme Assay: microtubule-stimulated ATPase activity (ADP-Glo). Type of assay: biochemical. The following applies: 30 nM KIF18A, 30 μg/mL pig microtubules, 75 μM ATP, ADP-Glo luminescence. The source says:
KIF18A Enzyme Assay: Microtubule-stimulated ATPase activity assay is used to measure KIF18A enzyme activity after treatment with compound. Compounds were 2-fold serially diluted in DMSO (Sigma Inc) over 22-point concentration range. Recombinant human KIF18A (1-467 His-tagged) protein was expressed using a baculovirus system and purified by affinity chromatography by Amgen Inc. Concentrations of KIF18A protein, microtubules (MT), and ATP in the reaction were optimized for standardized homogenous enzyme assay using ADP-Glo™ Kinase/ATPase Assay Kit (Promega Inc). The assay measures ADP formed from the ATPase reaction. Prepare reaction buffer [(15 mM Tris, pH 7.5 (Teknova Inc), 10 mM MgCl2 (IT Baker Inc), 0.01% Pluronic F-68 (Life Technologies Inc), 1 μM Taxol (Cytoskeleton Inc), and 30 μg/mL pig microtubules (Cytoskeleton Inc)]. Add compound and KIF18A protein (30 nM) to prepared reaction buffer and incubated for 15 minutes at room temperature, next add ATP (at Kin, 75 μM) to the reaction mixture and incubated for an additional 15 minutes at room temperature. Mix 5 μl of ADP-Glo™ Reagent and 2.5 μl of the reaction mixture and incubate for 40 minutes at room temperature. Add 10 μl ADP-Glo™ Detection Reagent and incubate for 40 minutes at room temperature. Read luminescence using EnVision microplate reader with ultra-luminescence module (Perkin Elmer Inc). Concentration-response curve-fitting and IC50 determination was performed using Genedata Screener Software (Standard 15.0.1, Genedata Inc) with a four-parameter logistic regression fit model.
Table A provides data for compounds exemplified in the present application and priority document thereof, as representative compounds of the present invention, as follows: chemical name (as named by either ACD software or ChemDraw (Professional 15.0)) and biological data (IC50 in μM). Ex. # refers to Example No.
A general note: ADP-Glo first removes unused ATP, then detects ADP through luciferase.

T1 sequence (Q8NI77 1-467): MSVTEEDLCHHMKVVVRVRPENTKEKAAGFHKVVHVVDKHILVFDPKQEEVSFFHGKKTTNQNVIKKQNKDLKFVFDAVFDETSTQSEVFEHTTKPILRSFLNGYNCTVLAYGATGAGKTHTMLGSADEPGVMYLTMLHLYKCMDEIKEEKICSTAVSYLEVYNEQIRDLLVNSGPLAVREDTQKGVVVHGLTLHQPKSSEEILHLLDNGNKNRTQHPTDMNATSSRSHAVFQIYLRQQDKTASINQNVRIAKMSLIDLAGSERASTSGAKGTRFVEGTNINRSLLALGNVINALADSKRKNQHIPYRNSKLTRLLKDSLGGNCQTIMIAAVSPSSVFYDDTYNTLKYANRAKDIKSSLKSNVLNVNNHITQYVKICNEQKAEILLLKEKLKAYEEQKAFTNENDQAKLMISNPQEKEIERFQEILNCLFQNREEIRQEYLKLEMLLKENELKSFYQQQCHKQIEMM
T1 sequence (P02550 whole entry partner): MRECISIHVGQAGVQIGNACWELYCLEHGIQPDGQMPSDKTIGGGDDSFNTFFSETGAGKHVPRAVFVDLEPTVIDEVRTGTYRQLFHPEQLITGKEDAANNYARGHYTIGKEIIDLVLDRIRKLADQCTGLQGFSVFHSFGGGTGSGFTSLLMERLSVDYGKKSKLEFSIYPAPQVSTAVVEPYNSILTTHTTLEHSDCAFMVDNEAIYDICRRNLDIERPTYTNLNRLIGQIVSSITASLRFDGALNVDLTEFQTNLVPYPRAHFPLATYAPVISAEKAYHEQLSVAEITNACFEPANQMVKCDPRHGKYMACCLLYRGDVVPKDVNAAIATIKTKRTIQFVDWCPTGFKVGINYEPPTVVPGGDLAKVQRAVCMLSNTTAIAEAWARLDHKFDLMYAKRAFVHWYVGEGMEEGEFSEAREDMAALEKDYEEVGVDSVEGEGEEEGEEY
T1 sequence (P02554 whole entry partner): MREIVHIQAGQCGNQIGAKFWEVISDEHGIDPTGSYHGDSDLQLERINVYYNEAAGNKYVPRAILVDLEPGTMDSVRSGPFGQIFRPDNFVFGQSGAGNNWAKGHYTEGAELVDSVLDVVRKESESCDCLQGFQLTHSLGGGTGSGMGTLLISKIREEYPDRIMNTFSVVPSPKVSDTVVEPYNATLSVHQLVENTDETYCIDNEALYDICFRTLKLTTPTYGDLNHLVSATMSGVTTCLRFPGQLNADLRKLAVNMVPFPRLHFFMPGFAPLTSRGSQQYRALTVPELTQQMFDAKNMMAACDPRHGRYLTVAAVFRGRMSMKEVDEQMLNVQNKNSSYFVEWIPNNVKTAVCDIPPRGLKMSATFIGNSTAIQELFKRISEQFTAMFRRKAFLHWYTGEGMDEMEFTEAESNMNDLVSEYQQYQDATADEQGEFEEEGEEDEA

The IC50 is the point on the concentration scale where inhibition reaches its midpoint. As for `COc1cc(NC(=O)c2ncc(NC(C)(C)CO)nc2N2CCC3(CC2)CC3)nc(N2CCOCC2)c1` [Example 116, 3-(6-azaspiro[2.5]octan-6-yl)-5-((1-hydroxy-2-methyl-2-propanyl)amino)-N-(4-methoxy-6-(4-morpholinyl)-2-pyridinyl)-2-pyrazinecarboxamide], the IC50 stood at 1160 nM.
The result for `COC(=O)C(F)(C(=O)OC)c1ccc(C(=O)Nc2cccc(N3CCO[C@H](C)C3)n2)c(N2CCC3(CC2)CC3)n1` [Example 198, dimethyl (6-(6-azaspiro[2.5]octan-6-yl)-5-((6-((2R)-2-methyl-4-morpholinyl)-2-pyridinyl)carbamoyl)-2-pyridinyl)(fluoro)propanedioate] reads 156 nM; that for `C[C@@H]1CN(c2cccc(NC(=O)c3ccc(S(C)(=O)=O)nc3N3CCC4(CC3)CC4)n2)CCO1` [Example 238, (R)-N-(6-(2-methylmorpholino)pyridin-2-yl)-6-(methylsulfonyl)-2-(6-azaspiro[2.5]octan-6-yl)nicotinamide], 284 nM.
The result for `COCC(C)(C)Nc1ccc(C(=O)Nc2cccc(N3CCO[C@H](C)C3)n2)c(N2CCC3(CC2)CC3)n1` [Example 200, 2-(6-azaspiro[2.5]octan-6-yl)-6-((1-methoxy-2-methyl-2-propanyl)amino)-N-(6-((2R)-2-methyl-4-morpholinyl)-2-pyridinyl)-3-pyridinecarboxamide] reads 636 nM; that for `CC1(C)CCN(c2cccc(NC(=O)c3ccc(NC(C)(C)CO)nc3N3CCC4(CC3)CC4)n2)C1` [Example 128, 2-(6-azaspiro[2.5]oct-6-yl)-N-(6-(3,3-dimethyl-l-pyrrolidinyl)-2-pyridinyl)-6-((2-hydroxy-1,1-dimethylethyl)amino)-3-pyridinecarboxamide], 95.3 nM; that for `CC1(C)OCC(c2ccc(C(=O)Nc3cccc(N4CCOCC4)n3)c(N3CCC4(CC3)CC4)n2)(C(F)(F)F)O1` (stereo not drawn) [Example 180, 6-(2,2-dimethyl-4-(trifluoromethyl)-1,3-dioxolan-4-yl)-N-(6-morpholinopyridin-2-yl)-2-(6-azaspiro[2.5]octan-6-yl)nicotinamide], 758 nM.
As for `C[C@@H]1CN(c2cccc(NC(=O)c3ccc(C(F)(CO)CO)nc3N3CCC4(CC3)CC4)n2)CCO1` [Example 196, 2-(6-azaspiro[2.5]octan-6-yl)-6-(2-fluoro-1,3-dihydroxy-2-propanyl)-N-(6-((2R)-2-methyl-4-morpholinyl)-2-pyridinyl)-3-pyridinecarboxamide], the half-maximal inhibitory concentration (IC50) was 158 nM.
As for `CN1CCN(c2cccc(NC(=O)c3ccc(NC(C)(C)CO)nc3N3CCC4(CC3)CC4)n2)CC1` [Example 133, 2-(6-azaspiro[2.5]oct-6-yl)-6-((2-hydroxy-1,1-dimethylethyl)amino)-N-(6-(4-methyl-1-piperazinyl)-2-pyridinyl)-3-pyridinecarboxamide], the IC50 was found to be 604 nM.
For the compound `CC(O)(c1ccc(NC(=O)c2cccc(N3CCOCC3)n2)c(N2CCC3(CC2)CC3)n1)C(F)(F)F` (stereo not drawn) [Example 246, N-(2-(6-Azaspiro[2.5]octan-6-yl)-6-(1,1,1-trifluoro-2-hydroxypropan-2-yl)pyridin-3-yl)-6-morpholinopicolinamide], the IC50 came out at 292 nM.
As for `CC(C)(CO)Nc1ccc(C(=O)Nc2cccc(N3CCC(O)C3(C)C)n2)c(N2CCC3(CC2)CC3)n1` (stereo not drawn) [Example 221, N-(6-(3-hydroxy-2,2-dimethylpyrrolidin-1-yl)pyridin-2-yl)-6-((1-hydroxy-2-methylpropan-2-yl)amino)-2-(6-azaspiro[2.5]octan-6-yl)nicotinamide], the concentration for half-maximal inhibition (IC50) amounted to 357 nM.
`CC1(O)CN(c2ccc(C(=O)Nc3cccc(S(=O)(=O)NC(C)(C)C)n3)c(N3CCC4(CC3)CC4)n2)C1` [Example 159, 2-(6-azaspiro[2.5]octan-6-yl)-6-(3-hydroxy-3-methyl-1-azetidinyl)-N-(6-((2-methyl-2-propanyl)sulfamoyl)-2-pyridinyl)-3-pyridinecarboxamide]: the IC50 stood at 169 nM.
For `CC(C)(CO)Nc1ccc(C(=O)Nc2cccc(N3CCN(C4CCC4)CC3)n2)c(N2CCC3(CC2)CC3)n1` [Example 191, 2-(6-azaspiro[2.5]octan-6-yl)-N-(6-(4-cyclobutyl-1-piperazinyl)-2-pyridinyl)-6-((1-hydroxy-2-methyl-2-propanyl)amino)-3-pyridinecarboxamide], the IC50 stood at 1240 nM.
The result for `CC(C)(CO)Nc1ccc(C(=O)Nc2cccc(N3CCOC(CN)C3)n2)c(N2CCC3(CC2)CC3)n1` (stereo not drawn) [Example 235, N-(6-(2-(aminomethyl)morpholino)pyridin-2-yl)-6-((1-hydroxy-2-methylpropan-2-yl)amino)-2-(6-azaspiro[2.5]octan-6-yl)nicotinamide] reads 357 nM.
As for `CC(C)(CO)Nc1ccc(C(=O)Nc2cccc(N3CCCC(NC(=O)OC(C)(C)C)C3)n2)c(N2CCC3(CC2)CC3)n1` (stereo not drawn) [Example 234, tert-butyl (1-(6-(6-((1-hydroxy-2-methylpropan-2-yl)amino)-2-(6-azaspiro[2.5]octan-6-yl)nicotinamido)pyridin-2-yl)piperidin-3-yl)carbamate], the IC50 is 1520 nM.
The result for `CC(C)(CO)Nc1ccc(C(=O)Nc2cccc(N3CCOCC3)n2)c(N2CCC3(CC2)CC3)n1` [Example 127, 2-(6-azaspiro[2.5]oct-6-yl)-6-((2-hydroxy-1,1-dimethylethyl)amino)-N-(6-(4-morpholinyl)-2-pyridinyl)-3-pyridinecarboxamide] reads 52.5 nM; that for `CC(C)(CO)Nc1ccc(C(=O)Nc2cccc(N3CCCC3(C)CO)n2)c(N2CCC3(CC2)CC3)n1` (stereo not drawn) [Example 231, 6-((1-hydroxy-2-methylpropan-2-yl)amino)-N-(6-(2-(hydroxymethyl)-2-methylpyrrolidin-1-yl)pyridin-2-yl)-2-(6-azaspiro[2.5]octan-6-yl)nicotinamide], 134 nM; that for `CC(C)(C)NS(=O)(=O)c1cccc(NC(=O)c2ccc(NC(C)(CO)CO)nc2N2CCC3(CC2)CC3)n1` [Example 174, 2-(6-azaspiro[2.5]octan-6-yl)-6-((1,3-dihydroxy-2-methyl-2-propanyl)amino)-N-(6-((2-methyl-2-propanyl)sulfamoyl)-2-pyridinyl)-3-pyridinecarboxamide], 62.2 nM.
The value for `CC(C)(CO)Nc1ccc(C(=O)Nc2cccc(N3CCN(C(=O)OC(C)(C)C)CC3)n2)c(N2CCC3(CC2)CC3)n1` [Example 185, 2-methyl-2-propanyl 4-(6-(((2-(6-azaspiro[2.5]octan-6-yl)-6-((1-hydroxy-2-methyl-2-propanyl)amino)-3-pyridinyl)carbonyl)amino)-2-pyridinyl)-1-piperazinecarboxylate] was 592 nM; that for `Cc1cc(NC(=O)c2ccc(OCC(N)(CO)C(F)(F)F)nc2N2CCC3(CC2)CC3)nc(N2CCOCC2)c1` (stereo not drawn) [Example 208, 6-(2-amino-3,3,3-trifluoro-2-(hydroxymethyl)propoxy)-N-(4-methyl-6-morpholinopyridin-2-yl)-2-(6-azaspiro[2.5]octan-6-yl)nicotinamide] was 692 nM.
The value for `C[C@@H]1CN(c2cccc(NC(=O)c3ccc(NS(C)(=O)=O)nc3N3CCC4(CC3)CC4)n2)CCO1` [Example 218, 2-(6-azaspiro[2.5]octan-6-yl)-N-(6-((2R)-2-methyl-4-morpholinyl)-2-pyridinyl)-6-((methylsulfonyl)amino)-3-pyridinecarboxamide] was 150 nM; that for `CC(C)(CO)Nc1ccc(C(=O)Nc2cccc(N3C[C@@H]4C[C@H]3CO4)n2)c(N2CCC3(CC2)CC3)n1` (racemic) [Example 151, N-(6-((1S,4S)-2-oxa-5-azabicyclo[2.2.1]heptan-5-yl)pyridin-2-yl)-6-((1-hydroxy-2-methylpropan-2-yl)amino)-2-(6-azaspiro[2.5]octan-6-yl)nicotinamide] was 90.5 nM; that for `CC(C)(C)NS(=O)(=O)c1cccc(NC(=O)c2ccc(C(C)(O)CO)nc2N2CCC3(CC2)CC3)n1` (stereo not drawn) [Example 169, N-(6-(N-(tert-butyl)sulfamoyl)pyridin-2-yl)-6-(1,2-dihydroxypropan-2-yl)-2-(6-azaspiro[2.5]octan-6-yl)nicotinamide] was 89.3 nM.
Turning to `CC(C)(CO)Nc1ccc(C(=O)Nc2cccc(N3CCCC(N)C3)n2)c(N2CCC3(CC2)CC3)n1` (stereo not drawn) [Example 236, N-(6-(3-aminopiperidin-1-yl)pyridin-2-yl)-6-((1-hydroxy-2-methylpropan-2-yl)amino)-2-(6-azaspiro[2.5]octan-6-yl)nicotinamide], the IC50 is 388 nM.
For the compound `CC(C)(CO)Nc1ccc(C(=O)Nc2cccc(N3CCC[C@@H](O)C3)n2)c(N2CCC3(CC2)CC3)n1` [Example 216, 2-(6-azaspiro[2.5]octan-6-yl)-6-((1-hydroxy-2-methyl-2-propanyl)amino)-N-(6-((3R)-3-hydroxy-1-piperidinyl)-2-pyridinyl)-3-pyridinecarboxamide], the IC50 came out at 80.4 nM.
